In article PMC9934367, “Functional impact of subunit composition and compensation on Drosophila melanogaster nicotinic receptors–targets of neonicotinoids” (PLOS Genetics, 2023):

System: D. melanogaster nAChRs
Test: Comparison of agonist activity between nAChRs expressed in X. laevis oocytes (one-way ANOVA, Kruskal-Wallis)
Type: cell-based
Experimental: We minimised the use of X. laevis according to the UK Animals (Scientific Procedures) Act, 1986. […] Oocytes were defolliculated after collagenase treatment in Ca^2+-free standard oocyte saline (Ca^2+-free SOS). cRNAs of the nAChR subunits and co-factors mixed at a concentration of 0.1 mg/mL was injected into oocytes at a volume of 50 nL. Then the oocytes were incubated in the incubation medium (SOS supplemented with sodium pyruvate (Nacalai Tesque, #13058–12), penicillin-streptomycin (MilliporeSigma, #P4333), gentamycin (Nacalai Tesque, #16672–04), and 4% horse serum (Thermo Fisher Scientific, #26050–070) for 3−4 days prior to electrophysiology.
Each defolliculated X. laevis oocyte was secured in a Perspex recording chamber and perfused with the standard oocyte saline (SOS) containing 0.5 μM atropine (SOSA) at a flow rate of 7−10 mL/min [48]. Two glass electrodes filled with 2 M KCl were impaled into each oocyte and the membrane potential was clamped at -100 mV. […] The peak amplitude of the response was measured and analysed by pCLAMP (Molecular Devices, USA).
Y=Imax/1+10^(logEC50‐X)nH
Where Y is the normalised response, X is log[ligand (M)], EC50 is the half maximal concentration (M), Imax is the maximum normalised response and nH is the Hill coefficient.
Prism software was employed for the statistical analyses. […] One-way ANOVA was used to analyse the differences of the ligand agonist activity in terms of pEC50 on the various nAChRs expressed in X. laevis as well as data obtained with D. melanogaster larvae and adults.

[1] = Dα1/Dα2/Dα3/Dβ1/Dβ2 vs. Dα1/Dα2/Dα4/Dβ1/Dβ2
[2] = Dα1/Dα2/Dα3/Dβ1/Dβ2 vs. Dα1/Dα2/Dβ1/Dβ2/Dβ3
[3] = Dα1/Dα2/Dα3/Dβ1/Dβ2 vs. Dα1/Dα3/Dα4/Dβ1/Dβ2
[4] = Dα1/Dα2/Dα3/Dβ1/Dβ2 vs. Dα1/Dα3/Dβ1/Dβ2/Dβ3
[5] = Dα1/Dα2/Dα3/Dβ1/Dβ2 vs. Dα2/Dα3/Dα4/Dβ1/Dβ2
[6] = Dα1/Dα2/Dα3/Dβ1/Dβ2 vs. Dα2/Dα3/Dβ1/Dβ2/Dβ3
[7] = Dα1/Dα2/Dα3/Dβ1 vs. Dα1/Dα2/Dα3/Dβ1/Dβ2
[8] = Dα1/Dα2/Dα3/Dβ1 vs. Dα1/Dα2/Dβ1/Dβ2
[9] = Dα1/Dα2/Dα3/Dβ1 vs. Dα1/Dα3/Dβ1/Dβ2
[10] = Dα1/Dα2/Dα3/Dβ1 vs. Dα1/Dβ1/Dβ2
[11] = Dα1/Dα2/Dα3/Dβ1 vs. Dα2/Dα3/Dβ1/Dβ2
[12] = Dα1/Dα2/Dα3/Dβ1 vs. Dα3/Dβ1/Dβ2
[13] = Dα1/Dα2/Dβ1/Dβ2 vs. Dα1/Dα2/Dα3/Dβ1/Dβ2
[14] = Dα1/Dα2/Dβ1/Dβ2 vs. Dα2/Dα3/Dβ1/Dβ2
[15] = Dα1/Dα2/Dβ1 vs. Dα1/Dα2/Dα3/Dβ1
[16] = Dα1/Dα2/Dβ1 vs. Dα1/Dα2/Dα3/Dβ1/Dβ2
[17] = Dα1/Dα2/Dβ1 vs. Dα1/Dα2/Dβ1/Dβ2
[18] = Dα1/Dα2/Dβ1 vs. Dα1/Dα3/Dβ1/Dβ2
[19] = Dα1/Dα2/Dβ1 vs. Dα2/Dα3/Dβ1/Dβ2
[20] = Dα1/Dα3/Dβ1/Dβ2 vs. Dα1/Dα2/Dα3/Dβ1/Dβ2
[21] = Dα1/Dα3/Dβ1/Dβ2 vs. Dα1/Dα2/Dβ1/Dβ2
[22] = Dα1/Dα3/Dβ1/Dβ2 vs. Dα2/Dα3/Dβ1/Dβ2
[23] = Dα1/Dα3/Dβ1 vs. Dα1/Dα2/Dα3/Dβ1
[24] = Dα1/Dα3/Dβ1 vs. Dα1/Dα2/Dα3/Dβ1/Dβ2
[25] = Dα1/Dα3/Dβ1 vs. Dα1/Dα2/Dβ1/Dβ2
[26] = Dα1/Dα3/Dβ1 vs. Dα1/Dα3/Dβ1/Dβ2
[27] = Dα1/Dα3/Dβ1 vs. Dα2/Dα3/Dβ1/Dβ2
[28] = Dα1/Dβ1/Dβ2 vs. Dα1/Dα2/Dα3/Dβ1/Dβ2
[29] = Dα1/Dβ1/Dβ2 vs. Dα1/Dα2/Dβ1/Dβ2

Question: For `CN/C(=N\[N+](=O)[O-])NCc1cnc(Cl)s1` [Clothianidin, clothianidin], which “Difference of Imax values, nAChRs compared” value (“Difference of Imax values” below) [1] is on record?
Answer: The value was -0.189.

Question: And the “Difference of pEC50 values, nAChRs compared” value (“Difference of pEC50 values” for short) [1]?
Answer: Its value is -0.13.

Question: What about the “Difference of Imax values” value [2] of the same molecule?
Answer: The value was -0.162.

Question: What about the “Difference of pEC50 values” value [2] of the same molecule?
Answer: Its value is 0.92.

Question: What about the “Difference of Imax values” value [3] of the same molecule?
Answer: Its value is 0.388.

Question: And the “Difference of pEC50 values” value [3]?
Answer: The value was -0.35.

Question: And the “Difference of Imax values” value [4]?
Answer: Its value is 0.281.

Question: What about the “Difference of pEC50 values” value [4] of the same molecule?
Answer: The value was -1.01.

Question: What about the “Difference of Imax values” value [5] of the same molecule?
Answer: Its value is -0.100.

Question: What about the “Difference of pEC50 values” value [5] of the same molecule?
Answer: Its value is -0.52.

Question: And the “Difference of Imax values” value [6]?
Answer: Its value is 0.117.

Question: And the “Difference of pEC50 values” value [6]?
Answer: The value was -0.87.

Question: What about the “Difference of Imax values” value [7] of the same molecule?
Answer: Its value is 0.005.

Question: What about the “Difference of pEC50 values” value [7] of the same molecule?
Answer: Its value is -0.04.

Question: And the “Difference of Imax values” value [8]?
Answer: The value was 0.017.

Question: And the “Difference of pEC50 values” value [8]?
Answer: Its value is 0.24.

Question: What about the “Difference of Imax values” value [9] of the same molecule?
Answer: The value was 0.133.

Question: What about the “Difference of pEC50 values” value [9] of the same molecule?
Answer: The value was -0.85.

Question: And the “Difference of Imax values” value [10]?
Answer: The value was 0.457.

Question: What about the “Difference of pEC50 values” value [10] of the same molecule?
Answer: Its value is -0.09.

Question: What about the “Difference of Imax values” value [11] of the same molecule?
Answer: Its value is 0.183.

Question: And the “Difference of pEC50 values” value [11]?
Answer: Its value is -0.74.

Question: What about the “Difference of Imax values” value [12] of the same molecule?
Answer: The value was 0.325.

Question: What about the “Difference of pEC50 values” value [12] of the same molecule?
Answer: Its value is -0.91.

Question: And the “Difference of Imax values” value [13]?
Answer: The value was -0.012.

Question: And the “Difference of pEC50 values” value [13]?
Answer: The value was -0.28.

Question: And the “Difference of Imax values” value [14]?
Answer: Its value is 0.166.

Question: And the “Difference of pEC50 values” value [14]?
Answer: Its value is -0.98.

Question: And the “Difference of Imax values” value [15]?
Answer: Its value is -0.118.

Question: And the “Difference of pEC50 values” value [15]?
Answer: The value was -1.48.

Question: And the “Difference of Imax values” value [16]?
Answer: Its value is -0.113.

Question: What about the “Difference of pEC50 values” value [16] of the same molecule?
Answer: Its value is -1.52.

Question: What about the “Difference of Imax values” value [17] of the same molecule?
Answer: Its value is -0.101.

Question: What about the “Difference of pEC50 values” value [17] of the same molecule?
Answer: Its value is -1.24.

Question: And the “Difference of Imax values” value [18]?
Answer: The value was 0.015.

Question: And the “Difference of pEC50 values” value [18]?
Answer: Its value is -2.33.

Question: What about the “Difference of Imax values” value (Dα1/Dα2/Dβ1 vs. Dα1/Dβ1/Dβ2) of the same molecule?
Answer: The value was 0.339.

Question: What about the “Difference of pEC50 values” value (Dα1/Dα2/Dβ1 vs. Dα1/Dβ1/Dβ2) of the same molecule?
Answer: The value was -1.57.

Question: What about the “Difference of Imax values” value (Dα1/Dα2/Dβ1 vs. Dα2/Dα3/Dβ1) of the same molecule?
Answer: Its value is -0.183.

Question: And the “Difference of pEC50 values” value (Dα1/Dα2/Dβ1 vs. Dα2/Dα3/Dβ1)?
Answer: Its value is -1.74.

Question: And the “Difference of Imax values” value [19]?
Answer: The value was 0.065.

Question: What about the “Difference of pEC50 values” value [19] of the same molecule?
Answer: The value was -2.22.

Question: And the “Difference of Imax values” value (Dα1/Dα2/Dβ1 vs. Dα3/Dβ1/Dβ2)?
Answer: The value was 0.207.

Question: What about the “Difference of pEC50 values” value (Dα1/Dα2/Dβ1 vs. Dα3/Dβ1/Dβ2) of the same molecule?
Answer: Its value is -2.39.

Question: And the “Difference of Imax values” value [20]?
Answer: The value was -0.128.

Question: And the “Difference of pEC50 values” value [20]?
Answer: Its value is 0.81.

Question: What about the “Difference of Imax values” value [21] of the same molecule?
Answer: The value was -0.116.

Question: What about the “Difference of pEC50 values” value [21] of the same molecule?
Answer: The value was 1.09.

Question: What about the “Difference of Imax values” value [22] of the same molecule?
Answer: Its value is 0.050.

Question: What about the “Difference of pEC50 values” value [22] of the same molecule?
Answer: The value was 0.11.

Question: What about the “Difference of Imax values” value [23] of the same molecule?
Answer: Its value is -0.190.

Question: What about the “Difference of pEC50 values” value [23] of the same molecule?
Answer: The value was 0.65.

Question: What about the “Difference of Imax values” value [24] of the same molecule?
Answer: The value was -0.185.

Question: And the “Difference of pEC50 values” value [24]?
Answer: Its value is 0.61.

Question: What about the “Difference of Imax values” value (Dα1/Dα3/Dβ1 vs. Dα1/Dα2/Dβ1) of the same molecule?
Answer: Its value is -0.072.

Question: And the “Difference of pEC50 values” value (Dα1/Dα3/Dβ1 vs. Dα1/Dα2/Dβ1)?
Answer: The value was 2.13.

Question: And the “Difference of Imax values” value [25]?
Answer: The value was -0.173.

Question: And the “Difference of pEC50 values” value [25]?
Answer: The value was 0.89.

Question: What about the “Difference of Imax values” value [26] of the same molecule?
Answer: The value was -0.057.

Question: What about the “Difference of pEC50 values” value [26] of the same molecule?
Answer: The value was -0.20.

Question: What about the “Difference of Imax values” value (Dα1/Dα3/Dβ1 vs. Dα1/Dβ1/Dβ2) of the same molecule?
Answer: The value was 0.267.

Question: And the “Difference of pEC50 values” value (Dα1/Dα3/Dβ1 vs. Dα1/Dβ1/Dβ2)?
Answer: The value was 0.56.

Question: And the “Difference of Imax values” value (Dα1/Dα3/Dβ1 vs. Dα2/Dα3/Dβ1)?
Answer: The value was -0.255.

Question: What about the “Difference of pEC50 values” value (Dα1/Dα3/Dβ1 vs. Dα2/Dα3/Dβ1) of the same molecule?
Answer: The value was 0.39.

Question: And the “Difference of Imax values” value [27]?
Answer: Its value is -0.007.

Question: What about the “Difference of pEC50 values” value [27] of the same molecule?
Answer: Its value is -0.09.

Question: And the “Difference of Imax values” value (Dα1/Dα3/Dβ1 vs. Dα3/Dβ1/Dβ2)?
Answer: Its value is 0.135.

Question: And the “Difference of pEC50 values” value (Dα1/Dα3/Dβ1 vs. Dα3/Dβ1/Dβ2)?
Answer: Its value is -0.26.

Question: And the “Difference of Imax values” value [28]?
Answer: The value was -0.452.

Question: And the “Difference of pEC50 values” value [28]?
Answer: The value was 0.05.

Question: And the “Difference of Imax values” value [29]?
Answer: Its value is -0.440.

Question: And the “Difference of pEC50 values” value [29]?
Answer: The value was 0.33.
